This note sets out measurements from ChEMBL document CHEMBL1909046, “DrugMatrix in vitro pharmacology data”.

Assay [1] addresses T1, Amine oxidase [flavin-containing] A (Homo sapiens, UniProt P21397).
T1 sequence (P21397 whole entry): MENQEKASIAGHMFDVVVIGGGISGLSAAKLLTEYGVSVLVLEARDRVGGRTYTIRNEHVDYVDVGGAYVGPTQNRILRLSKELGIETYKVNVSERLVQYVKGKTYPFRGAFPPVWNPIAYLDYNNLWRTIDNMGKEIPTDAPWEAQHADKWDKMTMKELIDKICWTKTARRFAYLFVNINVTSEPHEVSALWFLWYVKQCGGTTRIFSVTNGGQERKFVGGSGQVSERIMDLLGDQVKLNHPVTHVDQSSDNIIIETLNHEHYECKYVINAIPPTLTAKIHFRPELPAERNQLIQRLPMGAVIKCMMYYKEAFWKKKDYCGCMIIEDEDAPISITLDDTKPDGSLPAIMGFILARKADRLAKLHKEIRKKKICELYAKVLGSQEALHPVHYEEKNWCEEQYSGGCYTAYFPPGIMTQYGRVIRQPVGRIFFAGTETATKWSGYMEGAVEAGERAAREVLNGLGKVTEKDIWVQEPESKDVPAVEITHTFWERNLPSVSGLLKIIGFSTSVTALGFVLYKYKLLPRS
The assay can be described thus: DRUGMATRIX: Monoamine Oxidase MAO-A enzyme inhibition (substrate: Kynuramine). Also on record: species or system BTI-TN-5B1-4. The following applies: bti-tn-5b1-4; Not Active = under 50% inhibition at 10 µM.

The nature of assay [2]: DRUGMATRIX: Serotonin (5-Hydroxytryptamine) 5-HT3 radioligand binding (ligand: [3H] GR-65630). The class given is cell membranes, Membrane. The following applies: hek293; Not Active = under 50% inhibition at 10 µM.
Assay [3] deals with T2, Polyunsaturated fatty acid lipoxygenase ALOX15 (Oryctolagus cuniculus, UniProt P12530).
T2 sequence (P12530 whole entry): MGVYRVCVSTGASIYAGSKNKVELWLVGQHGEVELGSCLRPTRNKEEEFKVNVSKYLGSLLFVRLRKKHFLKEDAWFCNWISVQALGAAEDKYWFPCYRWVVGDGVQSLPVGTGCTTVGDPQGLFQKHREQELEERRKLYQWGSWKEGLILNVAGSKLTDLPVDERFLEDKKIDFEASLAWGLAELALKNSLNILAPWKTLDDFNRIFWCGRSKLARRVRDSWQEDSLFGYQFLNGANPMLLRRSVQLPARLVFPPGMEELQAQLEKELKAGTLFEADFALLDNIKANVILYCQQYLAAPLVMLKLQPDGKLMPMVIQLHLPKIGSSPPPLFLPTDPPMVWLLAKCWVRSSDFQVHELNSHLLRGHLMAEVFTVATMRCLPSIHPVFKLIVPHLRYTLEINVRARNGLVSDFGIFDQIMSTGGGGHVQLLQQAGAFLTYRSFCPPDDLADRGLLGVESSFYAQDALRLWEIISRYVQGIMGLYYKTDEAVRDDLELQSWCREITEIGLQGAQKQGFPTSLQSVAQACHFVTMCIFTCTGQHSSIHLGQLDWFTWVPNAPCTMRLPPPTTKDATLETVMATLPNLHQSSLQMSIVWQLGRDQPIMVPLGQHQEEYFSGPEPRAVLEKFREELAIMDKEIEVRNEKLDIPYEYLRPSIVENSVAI
The assay can be described thus: biochemical. The class given is tissue-based, Reticulocytes.

The target in another assay is T3, Thromboxane-A synthase (Homo sapiens, UniProt P24557).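 Note: enzyme inhibition assay with PGH2 supplied as substrate; in other assays of this panel Not Active means under 50% inhibition at 10 µM.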
T3 sequence (P24557 whole entry): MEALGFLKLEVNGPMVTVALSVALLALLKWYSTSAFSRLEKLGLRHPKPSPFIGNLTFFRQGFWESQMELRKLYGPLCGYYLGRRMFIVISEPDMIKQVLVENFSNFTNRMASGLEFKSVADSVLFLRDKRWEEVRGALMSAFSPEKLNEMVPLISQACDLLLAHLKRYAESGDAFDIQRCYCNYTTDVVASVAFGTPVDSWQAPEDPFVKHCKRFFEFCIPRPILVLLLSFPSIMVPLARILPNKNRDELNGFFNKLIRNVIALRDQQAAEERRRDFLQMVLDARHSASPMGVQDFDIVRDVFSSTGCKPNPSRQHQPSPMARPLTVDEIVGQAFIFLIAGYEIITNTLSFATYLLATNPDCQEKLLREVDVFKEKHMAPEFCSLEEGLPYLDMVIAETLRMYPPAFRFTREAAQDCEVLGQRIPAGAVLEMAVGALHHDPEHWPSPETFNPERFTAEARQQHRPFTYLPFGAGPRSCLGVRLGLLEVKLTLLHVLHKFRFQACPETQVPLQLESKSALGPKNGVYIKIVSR
The assay is described as follows: biochemical. Type of assay: tissue-based, Platelet. As to conditions: platelet.

Assay [4] concerns the target T4, Vasoactive intestinal polypeptide receptor 1 (Homo sapiens, UniProt P32241). Note: in other assays of this panel Not Active means under 50% inhibition at 10 µM.
T4 sequence (P32241 whole entry): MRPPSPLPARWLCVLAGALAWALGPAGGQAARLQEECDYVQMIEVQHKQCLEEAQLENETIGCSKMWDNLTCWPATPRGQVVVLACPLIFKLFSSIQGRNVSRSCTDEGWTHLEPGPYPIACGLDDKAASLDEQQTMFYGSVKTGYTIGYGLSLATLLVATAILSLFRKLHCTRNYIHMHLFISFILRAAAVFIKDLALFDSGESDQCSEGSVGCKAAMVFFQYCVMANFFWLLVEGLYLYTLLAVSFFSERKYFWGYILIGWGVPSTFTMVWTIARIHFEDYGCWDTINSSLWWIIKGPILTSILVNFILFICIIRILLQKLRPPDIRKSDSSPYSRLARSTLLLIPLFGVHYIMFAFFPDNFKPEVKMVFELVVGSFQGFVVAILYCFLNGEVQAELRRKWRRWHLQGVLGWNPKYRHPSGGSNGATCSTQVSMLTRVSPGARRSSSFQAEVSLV
The class given is cell membranes, Membrane. The following applies: ht-29.

In the next assay the target is Melanocortin receptor 3 (Homo sapiens, UniProt P41968). Type of assay: cell membranes, HEK293, Membrane. The following applies: hek293. Note: in other assays of this panel Not Active means under 50% inhibition at 10 µM.
Assay [5] deals with Prostaglandin G/H synthase 1 (Homo sapiens, UniProt P23219). The assay is described as follows: biochemical. Type of assay: tissue-based, Platelet. As to conditions: platelet.
Assay [6] concerns the target Protein kinase C alpha type (Homo sapiens, UniProt P17252). Type of assay: cell-based. The following applies: sf9.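 Note: inhibition of PKCalpha kinase activity measured in an enzyme assay with histone as the phosphorylation substrate; in other assays of this panel Not Active means under 50% inhibition at 10 µM.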

Chain of Melanocortin receptor 3 (P41968 whole entry): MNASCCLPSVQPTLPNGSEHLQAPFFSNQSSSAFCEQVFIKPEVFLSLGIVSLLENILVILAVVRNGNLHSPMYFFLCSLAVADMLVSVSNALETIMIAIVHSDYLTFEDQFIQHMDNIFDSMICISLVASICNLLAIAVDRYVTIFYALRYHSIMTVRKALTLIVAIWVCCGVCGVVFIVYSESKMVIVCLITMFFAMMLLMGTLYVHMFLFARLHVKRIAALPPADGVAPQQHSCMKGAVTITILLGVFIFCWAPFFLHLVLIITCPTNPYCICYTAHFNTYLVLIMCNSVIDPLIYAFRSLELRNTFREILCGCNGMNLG
Chain of Prostaglandin G/H synthase 1 (P23219 whole entry): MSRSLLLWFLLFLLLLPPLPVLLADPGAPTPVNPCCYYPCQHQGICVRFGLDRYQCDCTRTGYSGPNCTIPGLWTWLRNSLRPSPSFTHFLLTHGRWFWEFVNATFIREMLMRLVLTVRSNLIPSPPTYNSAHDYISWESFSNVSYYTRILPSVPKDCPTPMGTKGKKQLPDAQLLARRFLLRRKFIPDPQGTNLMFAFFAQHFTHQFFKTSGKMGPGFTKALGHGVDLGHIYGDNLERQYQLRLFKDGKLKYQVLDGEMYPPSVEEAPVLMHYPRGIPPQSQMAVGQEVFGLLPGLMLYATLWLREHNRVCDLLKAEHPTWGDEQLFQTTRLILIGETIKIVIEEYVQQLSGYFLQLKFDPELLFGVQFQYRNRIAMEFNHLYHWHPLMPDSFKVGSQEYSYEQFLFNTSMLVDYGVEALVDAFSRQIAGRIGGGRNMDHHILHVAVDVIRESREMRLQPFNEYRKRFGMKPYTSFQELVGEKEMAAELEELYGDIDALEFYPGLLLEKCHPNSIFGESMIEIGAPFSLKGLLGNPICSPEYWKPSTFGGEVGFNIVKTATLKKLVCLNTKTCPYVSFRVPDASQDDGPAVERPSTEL

By IC50 is commonly meant the midpoint of a concentration-inhibition curve. For `COc1cc(/C=C/C(=O)O)ccc1O` [FERULATE], the IC50 result in assay [1] is “Not Active”; in assay [2], “Not Active”; in assay [3] (read-out: IC50) it was 3.98 µM; on Thromboxane-A synthase, “Not Active”; in assay [4], “Not Active”; on Melanocortin receptor 3, “Not Active”. For the same compound, the half-maximal inhibitory concentration (IC50) entry in assay [5] and in assay [6] was “Not Active” in each case. In addition, the Ki entry in assay [2] was “Not Active”.

For `CC(C)(C#N)c1cc(Cn2cncn2)cc(C(C)(C)C#N)c1` [ANASTROZOLE], the IC50 result (in assay [1]; in assay [2]; in assay [3] (reticulocytes); against Thromboxane-A synthase; in assay [4]; at Melanocortin receptor 3) was “Not Active” each time. The IC50 entry in assay [5] and in assay [6] was “Not Active” in each case. In addition, the Ki result in assay [2] is given as “Not Active”.

With `COc1ccc(Cl)cc1C(=O)NCCc1ccc(S(=O)(=O)NC(=O)NC2CCCCC2)cc1` [GLYBURIDE], the IC50 entry (in assay [1]; in assay [2]; in assay [3] (reticulocytes); against Thromboxane-A synthase; in assay [4]; at Melanocortin receptor 3) was “Not Active” throughout. In addition, the half-inhibitory concentration (IC50) entry in assay [5] and in assay [6] was “Not Active” each time. The Ki entry in assay [2] was “Not Active”.

As for `CC(C)NCC(O)COc1ccc(CC(N)=O)cc1` (configuration not stated) [ATENOLOL], the IC50 entry (in assay [1]; in assay [2]; in assay [3] (reticulocytes); against Thromboxane-A synthase; in assay [4]; against Melanocortin receptor 3) was “Not Active” each time. Moreover, the half-inhibitory concentration (IC50) entry in assay [5] and in assay [6] was “Not Active” throughout. The Ki result in assay [2] is recorded as “Not Active”.

As to `O=C(O)COC(=O)Cc1ccccc1Nc1c(Cl)cccc1Cl` [ACECLOFENAC], the IC50 entry (in assay [1]; in assay [2]; in assay [3] (reticulocytes); against Thromboxane-A synthase; in assay [4]; at Melanocortin receptor 3) was “Not Active” throughout. In addition, the half-inhibitory concentration (IC50) result in assay [5] and in assay [6] was “Not Active” in each case. The Ki result in assay [2] is recorded as “Not Active”.

Consider `Cl.NC[C@H]1CC[C@H](C(=O)Oc2ccc(CCC(=O)O)cc2)CC1` [CETRAXATE HYDROCHLORIDE], for which the half-maximal inhibitory concentration (IC50) entry (in assay [1]; in assay [2]; in assay [3] (reticulocytes); against Thromboxane-A synthase; in assay [4]; on Melanocortin receptor 3) was “Not Active” in each case. Further, the IC50 entry in assay [5] and in assay [6] was “Not Active” throughout. Besides, the Ki entry in assay [2] was “Not Active”.

Consider `CC(=O)[C@]1(O)Cc2c(O)c3c(c(O)c2[C@@H](O[C@H]2C[C@H](N)[C@H](O)[C@H](C)O2)C1)C(=O)c1ccccc1C3=O` [IDARUBICIN], for which the IC50 result (in assay [1]; in assay [2]; in assay [3] (reticulocytes); on Thromboxane-A synthase; in assay [4]; at Melanocortin receptor 3) was “Not Active” throughout. In addition, the half-inhibitory concentration (IC50) result in assay [5] and in assay [6] was “Not Active” throughout. Besides, the Ki entry in assay [2] is “Not Active”.

Consider `C[C@@H]1[C@H](O)[C@@H](C)/C=C/C=C/C=C/C=C/C=C/C=C/C=C/[C@H](O[C@@H]2O[C@H](C)[C@@H](O)[C@H](N)[C@@H]2O)C[C@@H]2O[C@](O)(C[C@@H](O)C[C@@H](O)[C@H](O)CC[C@@H](O)C[C@@H](O)CC(=O)O[C@H]1C)C[C@H](O)[C@H]2C(=O)O` [AMPHOTERICIN B], for which the IC50 entry (in assay [1]; in assay [2]; in assay [3] (reticulocytes); against Thromboxane-A synthase; in assay [4]; against Melanocortin receptor 3) was “Not Active” in each case. The IC50 entry in assay [5] and in assay [6] was “Not Active” each time. Besides, the Ki result in assay [2] is given as “Not Active”.

Turning to `O=C(O)c1ccccc1` [BENZOIC ACID], the half-inhibitory concentration (IC50) result (in assay [1]; in assay [2]; in assay [3] (reticulocytes); on Thromboxane-A synthase; in assay [4]; on Melanocortin receptor 3) was “Not Active” each time. The IC50 entry in assay [5] and in assay [6] was “Not Active” each time. In addition, the Ki result in assay [2] is “Not Active”.

On to `C[C@]12CC[C@@H](O)C[C@@H]1CC[C@@H]1[C@@H]2CC[C@]2(C)C(=O)CC[C@@H]12` [ANDROSTERONE], for which the IC50 entry (in assay [1]; in assay [2]; in assay [3] (reticulocytes); against Thromboxane-A synthase; in assay [4]; on Melanocortin receptor 3) was “Not Active” in each case. Moreover, the IC50 entry in assay [5] and in assay [6] was “Not Active” in each case. Further, the Ki result in assay [2] was “Not Active”.

As for `NCC(CC(=O)O)c1ccc(Cl)cc1` (configuration not stated) [BACLOFEN], the IC50 entry (in assay [1]; in assay [2]; in assay [3] (reticulocytes); on Thromboxane-A synthase; in assay [4]; against Melanocortin receptor 3) was “Not Active” in each case. Further, the IC50 result in assay [5] and in assay [6] was “Not Active” in each case. The Ki result in assay [2] is recorded as “Not Active”.

Turning to `CC(C)Cc1ccc([C@H](C)C(=O)O)cc1` [DEXIBUPROFEN], the half-maximal inhibitory concentration (IC50) result (in assay [1]; in assay [2]; in assay [3] (reticulocytes); against Thromboxane-A synthase; in assay [4]; on Melanocortin receptor 3) was “Not Active” in each case. Moreover, the IC50 entry in assay [6] is reported as “Not Active”. For the same compound, the Ki result in assay [2] is “Not Active”.

Turning to `O=C(O)CCc1nc(-c2ccccc2)c(-c2ccccc2)o1` [OXAPROZIN], the 50% inhibitory concentration (IC50) entry (in assay [1]; in assay [2]; in assay [3] (reticulocytes); at Thromboxane-A synthase; in assay [4]; at Melanocortin receptor 3) was “Not Active” each time. Moreover, the half-inhibitory concentration (IC50) result in assay [6] is recorded as “Not Active”. Besides, in assay [2], the Ki entry was “Not Active”.

For the compound `CNC[C@H](O)c1ccc(O)c(O)c1` [EPINEPHRINE], the IC50 entry was “Not Active” in assay [1]; 3.28 µM in assay [3] (read-out: IC50); “Not Active” against Thromboxane-A synthase; “Not Active” in assay [4]; “Not Active” against Melanocortin receptor 3; “Not Active” in assay [5]. Moreover, the IC50 entry in assay [6] is reported as “Not Active”.
